Measured values reported in patent publication US20260035387A1 (BIOGEN MA INC., priority 2022, published 2026).

The compounds below were run on mutant Huntington (HTT) protein (assay: HTT Mutant HTRF iPSC assay (mHTT protein lowering)). Settings: human iPSC derived from a HTT patient with a poly-Q49 mutation.
Format: cell-based
For `Cc1cn2cc(NC(=O)c3cc4ccc(OC5CCC(N(C)C)C5)nc4s3)cc(F)c2n1` (centres unmarked) [Compound 155, 6-((3-(dimethylamino)cyclopentyl)oxy)-N-(8-fluoro-2-methylimidazo[1,2-a]pyridin-6-yl)thieno[2,3-b]pyridine-2-carboxamide], the IC50 was < 100 nM.
Work on `Cc1cn2cc(NC(=O)c3cc4ccc(Nc5cccc(N6CC(C)(C)C6)c5)nc4s3)ccc2n1` [Compound 42, 6-((3-(3,3-dimethylazetidin-1-yl)phenyl)amino)-N-(2-methylimidazo[1,2-a]pyridin-6-yl)thieno[2,3-b]pyridine-2-carboxamide] yielded an IC50 of 1000 to 9000 nM.
For `Cc1cn2cc(NC(=O)c3cc4ccc(N5CCN(C6CC6)CC5)nc4s3)cc(F)c2n1` [Compound 79, 6-(4-cyclopropylpiperazin-1-yl)-N-(8-fluoro-2-methylimidazo[1,2-a]pyridin-6-yl)thieno[2,3-b]pyridine-2-carboxamide], the IC50 was < 100 nM.
With `CNC1CN(c2ccc3cc(C(=O)Nc4cc(F)c5nc(C)cn5c4)sc3n2)C1` [Compound 197, N-(8-fluoro-2-methylimidazo[1,2-a]pyridin-6-yl)-6-(3-(methylamino)azetidin-1-yl)thieno[2,3-b]pyridine-2-carboxamide] the IC50 was < 100 nM.
In the case of `Cc1cn2cc(NC(=O)c3cc4ccc(OC5CC6(CCN(C)CC6)C5)nc4s3)cc(F)c2n1` [Compound 162, N-(8-fluoro-2-methylimidazo[1,2-a]pyridin-6-yl)-6-((7-methyl-7-azaspiro[3.5]nonan-2-yl)oxy)thieno[2,3-b]pyridine-2-carboxamide], the IC50 is reported as 100 to 1000 nM.
`Cc1cn2cc(NC(=O)c3cc4ncc(C5=CCNCC5)nc4s3)cc(F)c2n1` [Compound 147, N-(8-fluoro-2-methylimidazo[1,2-a]pyridin-6-yl)-3-(1,2,3,6-tetrahydropyridin-4-yl)thieno[2,3-b]pyrazine-6-carboxamide] was tested, and the IC50 was < 100 nM.
In the case of `Cc1cn2cc(NC(=O)c3nc4ccc(N5CC[C@@H](N(C)C)C5)nc4s3)cc(F)c2n1` [Compound 89, 5-[(3R)-3-(dimethylamino)pyrrolidin-1-yl]-N-(8-fluoro-2-methyl-imidazo[1,2-a]pyridin-6-yl)thiazolo[5,4-b]pyridine-2-carboxamide], the IC50 is reported as < 100 nM.
For `Cc1cn2cc(NC(=O)c3nc4ccc(C5CCNCC5)nc4s3)cc(F)c2n1` [Compound 129, N-(8-fluoro-2-methylimidazo[1,2-a]pyridin-6-yl)-5-(piperidin-4-yl)thiazolo[5,4-b]pyridine-2-carboxamide], the IC50 was < 100 nM.
Work on `Cc1cn2cc(NC(=O)c3cc4ccc(N(C)CCN(C)C)nc4s3)ccc2n1` [Compound 23, 6-((2-(dimethylamino)ethyl)(methyl)amino)-N-(2-methylimidazo[1,2-a]pyridin-6-yl)thieno[2,3-b]pyridine-2-carboxamide] yielded an IC50 of 100 to 1000 nM.
Work on `Cc1cn2cc(NC(=O)c3cc4ccc(Nc5ccc(CN6CCCC6)cc5)nc4s3)ccc2n1` [Compound 39, N-(2-methylimidazo[1,2-a]pyridin-6-yl)-6-((4-(pyrrolidin-1-ylmethyl)phenyl)amino)thieno [2,3-b]pyridine-2-carboxamide] yielded an IC50 of 1000 to 9000 nM.
`Cc1cn2cc(NC(=O)c3cc4ncc(C5CC6CCC(C5)N6)nc4s3)cc(F)c2n1` (centres unmarked) [Compound 142, 3-(8-azabicyclo[3.2.1]octan-3-yl)-N-(8-fluoro-2-methylimidazo[1,2-a]pyridin-6-yl)thieno[2,3-b]pyrazine-6-carboxamide] gave an IC50 of 100 to 1000 nM.
With `Cc1cn2cc(NC(=O)c3cc4ccc(N5CCC(C)(N(C)C)C5)nc4s3)nc(C)c2n1` (centres unmarked) [Compound 227, 6-(3-(dimethylamino)-3-methylpyrrolidin-1-yl)-N-(2,8-dimethylimidazo[1,2-a]pyrazin-6-yl)thieno[2,3-b]pyridine-2-carboxamide] the IC50 was < 100 nM.
In the case of `Cc1cn2cc(NC(=O)c3cc4ccc(C5CCCN(C)C5)nc4s3)nc(C)c2n1` (single isomer, unassigned) [Compound 187], the IC50 is reported as 100 to 1000 nM.
`CC(C)n1ncc2ccc(NC(=O)c3cc4ccc(N5CCC(N(C)C)C5)nc4s3)cc21` (centres unmarked) [Compound 61, 6-(3-(dimethylamino)pyrrolidin-1-yl)-N-(1-isopropyl-1H-indazol-6-yl)thieno[2,3-b]pyridine-2-carboxamide] was tested, and the IC50 was 1000 to 9000 nM.
With `CCN1CCN(c2ccc3nc(C(=O)Nc4cc5cn(C)nc5cc4OC)sc3n2)CC1` [Compound 118, 5-(4-ethylpiperazin-1-yl)-N-(6-methoxy-2-methyl-2H-indazol-5-yl)thiazolo[5,4-b]pyridine-2-carboxamide] the IC50 was 100 to 1000 nM.
With `Cc1cn2cc(NC(=O)c3cc4ccc(N5CC6CCC(C5)N6C)nc4s3)nc(C)c2n1` [Compound 243, N-(2,8-dimethylimidazo[1,2-a]pyrazin-6-yl)-6-(8-methyl-3,8-diazabicyclo[3.2.1]octan-3-yl)thieno[2,3-b]pyridine-2-carboxamide] the IC50 was < 100 nM.
`COc1cc2nc(C)cn2cc1NC(=O)c1cc2ccc(N3CC[C@@]4(CCCN4C)C3)nc2s1` (single isomer, unassigned) [Compound 252] was tested, and the IC50 was < 100 nM.
For `CCNC1CCN(c2ccc3cc(C(=O)Nc4cc5cc(C)nn5cc4OC)sc3n2)C1` (single isomer, unassigned) [Compound 213], the IC50 was < 100 nM.
`Cc1cn2cc(NC(=O)c3cc4nc(N5CC[C@@H](N(C)C)C5)ccc4o3)cc(F)c2n1` [Compound 166, (R)-5-(3-(dimethylamino)pyrrolidin-1-yl)-N-(8-fluoro-2-methylimidazo[1,2-a]pyridin-6-yl)furo[3,2-b]pyridine-2-carboxamide] was tested, and the IC50 was < 100 nM.
With `Cc1cn2cc(NC(=O)c3cc4ccc(N5CC[C@@H](N(C)C)C5)nc4s3)ncc2n1` [Compound 6, 6-[(3R)-3-(dimethylamino)pyrrolidin-1-yl]-N-(2-methylimidazo[1,2-a]pyrazin-6-yl)thieno[2,3-b]pyridine-2-carboxamide] the IC50 was 100 to 1000 nM.
With `COc1cc2nn(C)cc2cc1NC(=O)c1cc2ccc(N3CC(N4CCC4)C3)nc2s1` [Compound 232, 6-([1,3′-biazetidin]-1′-yl)-N-(6-methoxy-2-methyl-2H-indazol-5-yl)thieno[2,3-b]pyridine-2-carboxamide] the IC50 was < 100 nM.
For `Cc1cn2cc(NC(=O)c3cc4ccc(N5CCC(C6(N)CC6)C5)nc4s3)cc(F)c2n1` (centres unmarked) [Compound 78, 6-(3-(1-aminocyclopropyl)pyrrolidin-1-yl)-N-(8-fluoro-2-methylimidazo[1,2-a]pyridin-6-yl)thieno[2,3-b]pyridine-2-carboxamide], the IC50 was < 100 nM.
With `Cc1cn2cc(NC(=O)c3cc4ccc(N(C)C5CN6CCC5CC6)nc4s3)ccc2n1` (centres unmarked) [Compound 38, 6-(methyl(quinuclidin-3-yl)amino)-N-(2-methylimidazo[1,2-a]pyridin-6-yl)thieno[2,3-b]pyridine-2-carboxamide] the IC50 was 100 to 1000 nM.
Compound `Cc1cn2cc(NC(=O)c3cc4ccc(N5CC[C@H]6CN(C)CC[C@H]65)nc4s3)ccc2n1` (stereo in doubt) [Compound 28, N-(2-methylimidazo[1,2-a]pyridin-6-yl)-6-((3aS,7aR)-5-methyloctahydro-1H-pyrrolo[3,2-c]pyridin-1-yl)thieno[2,3-b]pyridine-2-carboxamide] has an IC50 of 1000 to 9000 nM.
For `Cc1cn2cc(NC(=O)c3cc4ccc([C@H]5CCCNC5)nc4s3)cc(F)c2n1` (single isomer, unassigned) [Compound 81], the IC50 was < 100 nM.
With `COc1c(NC(=O)c2cc3ccc(N4C[C@@H]5CN(C)C[C@@H]54)nc3s2)cc2cn(C)nc2c1F` [Compound 235, N-(7-fluoro-6-methoxy-2-methyl-2H-indazol-5-yl)-6-((1S,5R)-3-methyl-3,6-diazabicyclo[3.2.0]heptan-6-yl)thieno[2,3-b]pyridine-2-carboxamide] the IC50 was < 100 nM.
With `Cc1cc(NC(=O)c2cc3ccc(N4C[C@@H](C)N[C@@H](C)C4)nc3s2)cc2cn(C)nc12` [Compound 2, N-(2,7-dimethylindazol-5-yl)-6-[(3S,5R)-3,5-dimethylpiperazin-1-yl]thieno[2,3-b]pyridine-2-carboxamide] the IC50 was < 100 nM.
For `Cc1cn2cc(NC(=O)c3nc4ccc(N5CCC(N6CCC6)C5)nc4s3)cc(F)c2n1` (centres unmarked) [Compound 99, 5-(3-(azetidin-1-yl)pyrrolidin-1-yl)-N-(8-fluoro-2-methylimidazo[1,2-a]pyridin-6-yl)thiazolo[5,4-b]pyridine-2-carboxamide], the IC50 was < 100 nM.
In the case of `Cc1cn2cc(NC(=O)c3cc4nc(N5CCN(C)CC5)ccc4o3)cc(F)c2n1` [Compound 165, N-(8-fluoro-2-methylimidazo[1,2-a]pyridin-6-yl)-5-(4-methylpiperazin-1-yl)furo[3,2-b]pyridine-2-carboxamide], the IC50 is reported as < 100 nM.
Compound `Cc1cn2cc(NC(=O)c3cc4ccc(C5CCC6(CNC6)C5)nc4s3)cc(F)c2n1` (centres unmarked) [Compound 182, N-(8-fluoro-2-methylimidazo[1,2-a]pyridin-6-yl)-6-(2-azaspiro[3.4]octan-6-yl)thieno[2,3-b]pyridine-2-carboxamide] has an IC50 of 100 to 1000 nM.
In the case of `Cc1cn2cc(NC(=O)c3cc4ccc(OC5CCC6(CCN(C)CC6)C5)nc4s3)cc(F)c2n1` (centres unmarked) [Compound 160, N-(8-fluoro-2-methylimidazo[1,2-a]pyridin-6-yl)-6-((8-methyl-8-azaspiro[4.5]decan-2-yl)oxy)thieno[2,3-b]pyridine-2-carboxamide], the IC50 is reported as 100 to 1000 nM.
In the case of `Cc1cn2cc(NC(=O)c3cc4ccc(N5C[C@@H](C)N(C)[C@@H](C)C5)nc4s3)cc(F)c2n1` [Compound 69, N-(8-fluoro-2-methylimidazo[1,2-a]pyridin-6-yl)-6-((3R,5S)-3,4,5-trimethylpiperazin-1-yl)thieno[2,3-b]pyridine-2-carboxamide], the IC50 is reported as < 100 nM.
`Cc1cn2cc(NC(=O)c3cc4ncc(N5CCC6(CN(C)C6)C5)nc4s3)cc(F)c2n1` [Compound 257, N-(8-fluoro-2-methylimidazo[1,2-a]pyridin-6-yl)-3-(2-methyl-2,6-diazaspiro[3.4]octan-6-yl)thieno[2,3-b]pyrazine-6-carboxamide] showed an IC50 of 100 to 1000 nM.
With `COc1cc2nn(C)cc2cc1NC(=O)c1nc2ccc(C3CCN(C)C3)nc2s1` (centres unmarked) [Compound 137, N-(6-methoxy-2-methyl-2H-indazol-5-yl)-5-(1-methylpyrrolidin-3-yl)thiazolo[5,4-b]pyridine-2-carboxamide] the IC50 was < 100 nM.
`COc1cn2nc(C)cc2cc1NC(=O)c1cc2nc(N3CCC4(CCCN4C)C3)ccc2o1` (single isomer, unassigned) [Compound 175] was tested, and the IC50 was < 100 nM.
